The data set concerns CCRIS mutagenicity, Ames/micronucleus/aberration tests. The data set is described as follows: CCRIS mutagenicity studies.

Activity calls are given as the source filed them. No rule for the calls is given here.

With `Cc1cccc2cc3ccc4ccccc4c3nc12`, the mutagenic call (Test System: AMES SALMONELLA TYPHIMURIUM, Strain/Indicator: TA97A, Metabolic Activation: NONE, Method: PREINCUBATION) is “inactive; negative”; the mutagenic call (Test System: AMES SALMONELLA TYPHIMURIUM, Strain/Indicator: TA98, Metabolic Activation: NONE, Method: PREINCUBATION) is “inactive; negative”; the mutagenic call (Test System: AMES SALMONELLA TYPHIMURIUM, Strain/Indicator: TA100, Metabolic Activation: NONE, Method: PREINCUBATION) was “inactive; negative”; the mutagenic call (Test System: AMES SALMONELLA TYPHIMURIUM, Strain/Indicator: TA102, Metabolic Activation: NONE, Method: PREINCUBATION) was “inactive; negative”.
For the molecule `O.O.O.O.O.O.O.[Cl-].[Cl-].[Cl-].[Fe+3]`, the mutagenic call by setting is: (Test System: AMES SALMONELLA TYPHIMURIUM, Strain/Indicator: TA102, Metabolic Activation: NONE, Method: STANDARD PLATE) “inactive; negative”; (Test System: Mouse lymphoma, Strain/Indicator: L5178Y (tk+/tk-), Metabolic Activation: None, Method: Suspension/plate) “inactive; negative”; (Test System: Mouse lymphoma, Strain/Indicator: L5178Y (tk+/tk-), Metabolic Activation: Rat, Liver, S-9, Aroclor 1254, Method: Suspension/plate) “inactive; inconclusive (previous evaluation: negative)”.
With `COP(=S)(OC)Oc1nc(Cl)c(Cl)cc1Cl`, the mutagenic call by setting is: (Test System: AMES SALMONELLA TYPHIMURIUM, Strain/Indicator: TA98, Metabolic Activation: NONE) “inactive; negative”; (Test System: AMES SALMONELLA TYPHIMURIUM, Strain/Indicator: TA98, Metabolic Activation: RAT, LIVER, S-9, AROCLOR 1254) “inactive; negative”; (Test System: AMES SALMONELLA TYPHIMURIUM, Strain/Indicator: TA100, Metabolic Activation: NONE) “inactive; negative”; (Test System: AMES SALMONELLA TYPHIMURIUM, Strain/Indicator: TA100, Metabolic Activation: RAT, LIVER, S-9, AROCLOR 1254) “inactive; negative”; (Test System: AMES SALMONELLA TYPHIMURIUM, Strain/Indicator: TA102, Metabolic Activation: NONE) “inactive; negative”; (Test System: AMES SALMONELLA TYPHIMURIUM, Strain/Indicator: TA102, Metabolic Activation: RAT, LIVER, S-9, AROCLOR 1254) “inactive; negative”. Moreover, the mutagenic call is, setting by setting: (Test System: AMES SALMONELLA TYPHIMURIUM, Strain/Indicator: TA1535, Metabolic Activation: NONE) “inactive; negative”; (Test System: AMES SALMONELLA TYPHIMURIUM, Strain/Indicator: TA1535, Metabolic Activation: RAT, LIVER, S-9, AROCLOR 1254) “inactive; negative”; (Test System: AMES SALMONELLA TYPHIMURIUM, Strain/Indicator: TA1537, Metabolic Activation: NONE) “inactive; negative”; (Test System: AMES SALMONELLA TYPHIMURIUM, Strain/Indicator: TA1537, Metabolic Activation: RAT, LIVER, S-9, AROCLOR 1254) “inactive; negative”.
Regarding `CO[C@H](C(=O)[C@@H](O)[C@@H](C)O)[C@@H]1Cc2cc3cc(O[C@H]4C[C@@H](O[C@H]5C[C@@H](O)[C@H](O)[C@@H](C)O5)[C@H](O)[C@@H](C)O4)c(C)c(O)c3c(O)c2C(=O)[C@H]1O[C@H]1C[C@@H](O[C@H]2C[C@@H](O[C@H]3C[C@](C)(O)[C@H](O)[C@@H](C)O3)[C@@H](O)[C@@H](C)O2)[C@H](O)[C@@H](C)O1`, under “Test System: CHINESE HAMSTER OVARY, Strain/Indicator: CHO (HGPRT)/6-THIOGUANINE, Metabolic Activation: NONE, Method: PREINCUBATION”, the mutagenic call was “active; positive”.
As for `CC(C)[C@@](O)(C(=O)OCC1=CCN2CC[C@@H](O)[C@@H]12)[C@H](C)O`, the mutagenic call is, setting by setting: (Test System: AMES SALMONELLA TYPHIMURIUM, Strain/Indicator: TA100, Metabolic Activation: HAMSTER, LIVER, S-9, PCB, Method: PREINCUBATION) “inactive; negative”; (Test System: AMES SALMONELLA TYPHIMURIUM, Strain/Indicator: TA100, Metabolic Activation: RAT, LIVER, S-9, PCB, Method: PREINCUBATION) “inactive; negative”.

Values taken from PubChem BioAssay AID1259407 (Chemical Carcinogenesis Research Information System (CCRIS), 2018).
